Laboratory results as given in PMC6102549, “Synthesis and Evaluation of C15 Triene Urushiol Derivatives as Potential Anticancer Agents and HDAC2 Inhibitor” (Molecules : A Journal of Synthetic Chemistry and Natural …, 2018).
pIC50: −log10 of the molar value.

Assays:
LO2 cells = assay: MTT assay, toxic effect on normal liver cells LO2; type: cell-based; settings: in vitro
Procedure: (§1) As shown in Figure 1 and Table 1, compounds 1–16 were evaluated for their inhibitory effects on the proliferation of HepG2 and LO2 cells by MTT assay. […] It provided the experimental basis for the subsequent synthesis of attenuating and improving urushiol derivatives.
(§2) Detection of cell proliferation by MTT
(§3) MTT assay was used to determine the inhibitory effect of the sample on the proliferation of HepG2 cells. The tumor cells of logarithmic growth stage were inoculated with 3.5 * 103 / well in 96 well culture plate. 0.2 ml/pore system was cultured for 72 h with different concentrations of samples. Then 20μL(final concentration 0.5 mg / mL) of MTT were added to each pore for 4 h. The supernatant was carefully adsorbed, DMSO 0.15 mL was added to each pore, and oscillatory mixing was carried out. The absorbance (A) value at 490 nm wavelength was measured by enzyme labeling instrument. The inhibition rate of cell proliferation was calculated as follows: [(A value of negative control group-A value of blank group)-(A value of experimental group A value of blank group)] / (negative pair group A-A value of blank group) × 100.Statistical method. The statistical analysis was carried out by SPSS 17.0 statistical software. The measured data were described by x ±s, and the mean of the two samples was compared with t test (P < 0. 05).
(§4) Materials and methods: Main reagents and instruments […]
(§5) Full-range rainbow […]
(§6) The HepG2 cells were cultured in a saturated humidity incubator with 90% […]
(§7) Jiangsu Kaiji Biotechnology Co., Ltd. Main reagents and consumables Cell culture bottle […]
(§8) Cell proliferation measured by MTT
(§9) 1) the cells were digested and counted, the cell suspension was prepared by 3 x 10^4 /ml, and 100 micron L cell suspension was added to each hole in the 96 hole cell culture plate.
(§10) 2) 96 hole cell culture plate was placed in 37, 5%, CO2 culture box for 24 hours.
(§11) 3) use the medium to dilute the drug to the desired working fluid concentration, add 100 micron l per hole to the corresponding drug medium, and establish a negative control group and a positive control group (paclitaxel, 20ug/ml).
(§12) 4) 96 hole cell culture plate was placed at 37 ℃ and 5% CO2 incubator for 72 hours.
(§13) 5) 96 hole board for MTT staining, lambda =490nm, OD value determination; a. 20 μL MTT (5mg/ml) per hole was added to the culture box for 4 hours. b. discarding the supernatant, adding 150 μL DMSO for each hole, and gently mixing the […]
(§14) c. lambda =490nm, ELISA od readout per hole, the inhibition rate was calculated.
(§15) 6) calculate the inhibition rate of each group.The inhibition rate (%) = (negative control group OD value of experimental group / OD) negative control group OD x 100% […]
(§16) 7 check the machine and record the red fluorescence at the excitation wavelength of 488nm.
(§17) Detection of apoptosis by Annexin-V FITC/PI double staining
(§18) (1) inoculate the logarithmic growth cells into the six-hole plate. The next day, after the cells are adhered to the wall, according to the group . The culture medium containing medicine was added and the negative control group was set up at the same time
(§19) (2) after 72 hours of treatment, the cells were digested with 0.25% trypsin (excluding […]
(§20) (3) 5 × 10 ~ 5 cells were collected by PBS washing cells twice (centrifugation 2000rpm for 5

HepG2 cells = assay: MTT assay, inhibition of proliferation of HepG2 cells; type: cell-based, human; settings: for pIC50: in vitro, 72 h
Procedure: as §1, §2, §3, §4, §5, §6, §7, §8, §9, §10, §11, §12, §13, §14, §15, §16, §17, §18, §19, §20

Row | Structure (SMILES) | pIC50 (HepG2 cells; Homo sapiens, HepG2, 72 h) | pIC50 (HepG2 cells) | pIC50 (LO2 cells; Homo sapiens, L02, 72 h) | inhibitory activity on HepG2 cells proliferation (in words) (HepG2 cells) | pIC50 (LO2 cells; 72 h)
1 | C/C=C\C=C\C/C=C\CCCCCCCc1cccc2c1OC(C)(C(C)Br)O2 (stereo not drawn) [Compound 7] | 4.05 | – | < 3.70 | – | –
2 | C/C=C\C=C\C/C=C\CCCCCCCc1cccc(O)c1NS(C)(=O)=O [Compound 9] | 4.82 | – | 3.92 | strong | –
3 | C/C=C\C=C\C/C=C\CCCCCCCc1ccc2c(C)cc(=O)oc2c1O [Compound 10, 8-hydroxy-4-methyl-7-((8Z,11E,13Z)-pentadeca-8,11,13-trien-1-yl)-2H-chro men-2-one] | ~4.55 | 4.54 | 3.74 | – | 3.70

Second part, led by results:

Row | pIC50 (HepG2 cells; Homo sapiens, HepG2, 72 h) | pIC50 (HepG2 cells) | Structure (SMILES) | pIC50 (LO2 cells; Homo sapiens, L02, 72 h) | inhibitory activity on HepG2 cells proliferation (in words) (HepG2 cells) | pIC50 (LO2 cells; 72 h)
4 | 4.10 | – | C/C=C\C=C\C/C=C\CCCCCCCc1ccc2c(C)cc(=O)oc2c1OB(O)c1ccccc1 [Compound 14] | < 3.70 | – | –
5 | 4.17 | – | C/C=C\C=C\C/C=C\CCCCCCCc1ccc2c(C)cc(=O)oc2c1OB(O)c1ccncc1 [Compound 15] | < 3.70 | – | –
6 | 3.82 | – | C/C=C\C=C\C/C=C\CCCCCCCc1ccc2c(C)cc(=O)oc2c1OB(O)c1ccnc(F)c1 [Compound 16] | < 3.70 | – | –
